Laboratory results: ChEMBL document CHEMBL3085718, “Discovery and optimization of orally active cyclohexane-based prolylcarboxypeptidase (PrCP) inhibitors” (Bioorg Med Chem Lett, 2013)

Tests used:
in vivo [1] = conditions: mouse, po
in vivo [2] = conditions: mouse
in vivo [3] = conditions: C57, mouse, plasma, po, 30 mg/kg
[4] = Plasma concentration in C57 mouse at 10 mg/kg, po after 20 hrs by LC/MS analysis; type: ADME, organism-based; parameters: dose 10 mg/kg, route oral

Row | SMILES | bioavailability (in vivo [1]) [%] | half-life (in vivo [2]) [h] | concentration at 20 h (in vivo [3]) [nM] | concentration at 20 h [4] [nM]
1 | O=C(NC(c1ccncc1)c1ccc(F)cc1)[C@@H]1CC[C@@H](N2CCOCC2)C[C@H]1c1ccc(Br)cc1 (stereo not given in full) | 6.9 | 2 |  | 
2 | O=C(NC(c1ccc(Cl)cc1)c1cnccn1)[C@@H]1CC[C@@H](N2CCOCC2)C[C@H]1c1ccc(Br)cc1 (stereo not given in full) | 5.2 | 1.2 |  | 
3 | O=C(NC(c1ccc(F)cc1)c1ccc(F)cc1)[C@@H]1CC[C@@H](N2CCOCC2)C[C@H]1c1ccc(Br)cc1 | 77 | 7.6 | 1020 | 
4 | O=C(NC(c1ccc(Cl)cc1)c1ccc(F)cn1)[C@@H]1CC[C@@H](N2CCOCC2)C[C@H]1c1ccc(Br)cc1 (stereo not given in full) | 50 | 4.9 | 1840 | 
5 | O=C(NC(c1ccc(Cl)cc1)c1ccncc1Cl)[C@@H]1CC[C@@H](N2CCOCC2)C[C@H]1c1ccc(Br)cc1 (stereo not given in full) | 17 | 1.5 |  | 
6 | O=C(NC(c1ccncc1)c1ccc(Cl)cc1)[C@@H]1CC[C@@H](N2CCOCC2)C[C@H]1c1ccc(Br)cc1 (stereo not given in full) | 8.9 | 1.4 |  | 
7 | O=C(NC(c1ccccc1)c1ccccc1)[C@@H]1CC[C@@H](N2CCOCC2)C[C@H]1c1ccc(Br)cc1 | 36 | 3.1 |  | 
8 | O=C(NC(c1ccc(Cl)cc1)c1ccnc(F)c1)[C@@H]1CC[C@@H](N2CCOCC2)C[C@H]1c1ccc(Br)cc1 (stereo not given in full) | 90 | 2.9 | 390 | 163
